Reference: PubChem BioAssay (NCI)
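Step 1: Grow cells in 96-well plates. Step 2: Expose to compound for 48 hours at 5 concentrations. Step 3: Interpolate endpoints linearly; if unreached, use highest concentration. At the GI50, growth is halved. TGI: total growth inhibition.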

Tests used:
Experiment in all cases: NCI anticancer screen, dose series, 48 h
786-0 renal = test system: 786-0 renal
A498 renal = test system: A498 renal
A549 NSCLC = test system: A549 NSCLC
ACHN renal = test system: ACHN renal
BT-549 breast = test system: BT-549 breast
CAKI-1 renal = test system: CAKI-1 renal
CCRF-CEM leukemia = test system: CCRF-CEM leukemia
COLO 205 colon = test system: COLO 205 colon
DU-145 prostate = test system: DU-145 prostate
EKVX NSCLC = test system: EKVX NSCLC
HCC-2998 colon = test system: HCC-2998 colon
HCT-116 colon = test system: HCT-116 colon
HCT-15 colon = test system: HCT-15 colon
HL-60(TB) leukemia = test system: HL-60(TB) leukemia
HOP-62 NSCLC = test system: HOP-62 NSCLC
HOP-92 NSCLC = test system: HOP-92 NSCLC
HS 578T breast = test system: HS 578T breast
HT29 colon = test system: HT29 colon
K-562 leukemia = test system: K-562 leukemia
KM12 colon = test system: KM12 colon
LOX IMVI melanoma = test system: LOX IMVI melanoma
M14 melanoma = test system: M14 melanoma
MALME-3M melanoma = test system: MALME-3M melanoma
MCF7 breast = test system: MCF7 breast
MDA-MB-231 breast = test system: MDA-MB-231 breast
MDA-MB-435 = test system: MDA-MB-435
MDA-MB-468 breast = test system: MDA-MB-468 breast
MOLT-4 leukemia = test system: MOLT-4 leukemia
NCI-H226 lung = test system: NCI-H226 lung
NCI-H23 lung = test system: NCI-H23 lung
NCI-H460 lung = test system: NCI-H460 lung
NCI-H522 lung = test system: NCI-H522 lung
OVCAR-3 ovarian = test system: OVCAR-3 ovarian
OVCAR-4 ovarian = test system: OVCAR-4 ovarian
OVCAR-5 ovarian = test system: OVCAR-5 ovarian
OVCAR-8 ovarian = test system: OVCAR-8 ovarian
PC-3 prostate = test system: PC-3 prostate
RPMI-8226 leukemia = test system: RPMI-8226 leukemia
RXF 393 renal = test system: RXF 393 renal
SF-268 CNS = test system: SF-268 CNS
SF-295 CNS = test system: SF-295 CNS
SK-MEL-2 melanoma = test system: SK-MEL-2 melanoma
SK-MEL-28 melanoma = test system: SK-MEL-28 melanoma
SK-MEL-5 melanoma = test system: SK-MEL-5 melanoma
SK-OV-3 ovarian = test system: SK-OV-3 ovarian
SN12C renal = test system: SN12C renal
SNB-19 CNS = test system: SNB-19 CNS
SNB-75 CNS = test system: SNB-75 CNS
SR leukemia = test system: SR leukemia
SW-620 colon = test system: SW-620 colon
T-47D breast = test system: T-47D breast
TK-10 renal = test system: TK-10 renal
U251 CNS = test system: U251 CNS
UACC-257 melanoma = test system: UACC-257 melanoma
UACC-62 melanoma = test system: UACC-62 melanoma
UO-31 renal = test system: UO-31 renal

Cc1ccc(C(=O)Nc2ccc(-n3ccnc3)c(C(F)(F)F)c2)cc1C#Cc1cnc2cccnn12
GI50 (786-0 renal): 2.7 µM | TGI (786-0 renal): > 45.8 µM | GI50 (A498 renal): 2.69 µM | TGI (A498 renal): > 45.8 µM | GI50 (A549 NSCLC): 1.82 µM | TGI (A549 NSCLC): > 45.8 µM | GI50 (ACHN renal): 1.64 µM | TGI (ACHN renal): 20.5 µM | GI50 (BT-549 breast): 1.42 µM | TGI (BT-549 breast): 4.08 µM | GI50 (CAKI-1 renal): 1.42 µM | TGI (CAKI-1 renal): 16 µM | GI50 (CCRF-CEM leukemia): 1.38 µM | TGI (CCRF-CEM leukemia): > 45.8 µM | GI50 (COLO 205 colon): 1.22 µM | TGI (COLO 205 colon): > 45.8 µM | GI50 (DU-145 prostate): 2.53 µM | TGI (DU-145 prostate): > 45.8 µM | GI50 (EKVX NSCLC): 3.11 µM | TGI (EKVX NSCLC): > 45.8 µM | GI50 (HCC-2998 colon): 1.13 µM | TGI (HCC-2998 colon): > 45.8 µM | GI50 (HCT-116 colon): 0.917 µM | TGI (HCT-116 colon): > 45.8 µM | GI50 (HCT-15 colon): 1.29 µM | TGI (HCT-15 colon): > 45.8 µM | GI50 (HL-60(TB) leukemia): 0.215 µM | TGI (HL-60(TB) leukemia): 1.54 µM | GI50 (HOP-62 NSCLC): 1.36 µM | TGI (HOP-62 NSCLC): > 45.8 µM | GI50 (HOP-92 NSCLC): 0.702 µM | TGI (HOP-92 NSCLC): 3.1 µM | GI50 (HS 578T breast): 0.713 µM | TGI (HS 578T breast): 2.93 µM | GI50 (HT29 colon): 0.915 µM | TGI (HT29 colon): > 45.8 µM | GI50 (K-562 leukemia): 0.00458 µM | TGI (K-562 leukemia): > 45.8 µM | GI50 (KM12 colon): 0.203 µM | TGI (KM12 colon): > 45.8 µM | GI50 (LOX IMVI melanoma): 0.637 µM | TGI (LOX IMVI melanoma): > 45.8 µM | GI50 (M14 melanoma): 0.567 µM | TGI (M14 melanoma): > 45.8 µM | GI50 (MALME-3M melanoma): 0.198 µM | TGI (MALME-3M melanoma): 1.72 µM | GI50 (MCF7 breast): 2.14 µM | TGI (MCF7 breast): > 45.8 µM | GI50 (MDA-MB-231 breast): 0.331 µM | TGI (MDA-MB-231 breast): 3.21 µM | GI50 (MDA-MB-435): 1.1 µM | TGI (MDA-MB-435): > 45.8 µM | GI50 (MDA-MB-468 breast): 1.57 µM | TGI (MDA-MB-468 breast): > 45.8 µM | GI50 (MOLT-4 leukemia): 0.822 µM | TGI (MOLT-4 leukemia): 3.51 µM | GI50 (NCI-H226 lung): 0.567 µM | TGI (NCI-H226 lung): 14.4 µM | GI50 (NCI-H23 lung): 1.02 µM | TGI (NCI-H23 lung): > 45.8 µM | GI50 (NCI-H460 lung): 1.73 µM | TGI (NCI-H460 lung): > 45.8 µM | GI50 (NCI-H522 lung): 0.851 µM | TGI (NCI-H522 lung): 3.36 µM | GI50 (OVCAR-3 ovarian): 2.38 µM | TGI (OVCAR-3 ovarian): > 45.8 µM | GI50 (OVCAR-4 ovarian): 1.3 µM | TGI (OVCAR-4 ovarian): > 45.8 µM | GI50 (OVCAR-5 ovarian): 1.02 µM | TGI (OVCAR-5 ovarian): > 45.8 µM | GI50 (OVCAR-8 ovarian): 1.32 µM | TGI (OVCAR-8 ovarian): > 45.8 µM | GI50 (PC-3 prostate): 1.55 µM | TGI (PC-3 prostate): 12.1 µM | GI50 (RPMI-8226 leukemia): 0.83 µM | TGI (RPMI-8226 leukemia): 3.6 µM | GI50 (RXF 393 renal): 1.12 µM | TGI (RXF 393 renal): 3.31 µM | GI50 (SF-268 CNS): 1.98 µM | TGI (SF-268 CNS): > 45.8 µM | GI50 (SF-295 CNS): 1.27 µM | TGI (SF-295 CNS): > 45.8 µM | GI50 (SK-MEL-2 melanoma): 0.458 µM | TGI (SK-MEL-2 melanoma): 2.51 µM | GI50 (SK-MEL-28 melanoma): 0.79 µM | TGI (SK-MEL-28 melanoma): 5.78 µM | GI50 (SK-MEL-5 melanoma): 1.27 µM | TGI (SK-MEL-5 melanoma): 4.92 µM | GI50 (SK-OV-3 ovarian): 5.18 µM | TGI (SK-OV-3 ovarian): > 45.8 µM | GI50 (SN12C renal): 1.06 µM | TGI (SN12C renal): > 45.8 µM | GI50 (SNB-19 CNS): 6.06 µM | TGI (SNB-19 CNS): > 45.8 µM | GI50 (SNB-75 CNS): 0.69 µM | TGI (SNB-75 CNS): 5.75 µM | GI50 (SR leukemia): 1.33 µM | TGI (SR leukemia): > 45.8 µM | GI50 (SW-620 colon): 1.19 µM | TGI (SW-620 colon): > 45.8 µM | GI50 (T-47D breast): 0.943 µM | TGI (T-47D breast): 4.11 µM | GI50 (TK-10 renal): 2.91 µM | TGI (TK-10 renal): > 45.8 µM | GI50 (U251 CNS): 3.66 µM | TGI (U251 CNS): > 45.8 µM | GI50 (UACC-257 melanoma): 1.19 µM | TGI (UACC-257 melanoma): > 45.8 µM | GI50 (UACC-62 melanoma): 0.495 µM | TGI (UACC-62 melanoma): 1.62 µM | GI50 (UO-31 renal): 0.702 µM | TGI (UO-31 renal): > 45.8 µM
